Like-named read-outs stand apart in the source and are kept apart here.
What was measured:
[1] = test system: MCF10A breast non-cancer cells; assay: MTT cell proliferation assay, MCF10A; type: cell-based, human; conditions: for IC50: read-out: IC50 on proliferation
Protocol: (§1) Human cervix cancer HeLa and SiHa, human prostate cancer PC3, human colon cancer colo-205, and rat heart myoblast H9c2 cells (CRL-1446, ATCC, Manassas, VA, USA) were cultured in DMEM medium, while human breast cancer MCF7 cells were cultivated in MEM medium. Human breast epithelial MCF-10A cells (CRL-10317, ATCC, Manassas, VA, USA) were cultivated in F-12/DMEM medium. All media were supplemented with 25 mM glucose, 10% fetal bovine serum (Biowest, Riverside, MO, USA) and 10,000 U streptomycin/penicillin/mL under an atmosphere of 5% CO2 and 95% air at 37°C until 80-90% confluence.
(§2) The cell lines (20 × 10^3 cells/well) were grown in 96-well plates containing Dulbecco’s Modified Eagle’s Medium (DMEM) (Sigma-Aldrich, St Louis, MO, USA) for 24 h. Afterward, the cells were exposed to rotenone (1 nM to 50 µM) or malonate (0.1µM to 100 mM) for 24 h. Drug effects on cell proliferation were determined by using the 3-(4,5-dimethyl-thiazol-2-yl)-2,5-diphenyltetrazolium bromide (MTT) (Sigma-Aldrich, St Louis, MO, USA) assay. Plates were incubated at 37°C for 3 h; after, the medium was discarded, and the formazan crystals were dissolved with 100 µL DMSO. After 5 min incubation at 37°C, the absorbance was measured at λ 595 nm ([34]).

[2] = test system: H9c2 heart myoblast cells; assay: MTT cell proliferation assay, H9c2; type: cell-based, rat; conditions: read-out: IC50 on proliferation
Protocol: as §1, §2

[3] = test system: COLO-205 colon cancer cells; assay: MTT cell proliferation assay, COLO-205; type: cell-based, human; conditions: read-out: IC50 on proliferation
Protocol: as §1, §2

[4] = test system: PC3 prostate cancer cells; assay: MTT cell proliferation assay, PC3; type: cell-based, human; conditions: read-out: IC50 on proliferation
Protocol: as §1, §2

[5] = test system: HeLa cervix cancer cells; assay: MTT cell proliferation assay, HeLa; type: cell-based, human; conditions: read-out: IC50 on proliferation
Protocol: as §1, §2

[6] = test system: MCF7 breast cancer cells; assay: MTT cell proliferation assay, MCF7; type: cell-based, human; conditions: read-out: IC50 on proliferation
Protocol: as §1, §2

[7] = test system: SiHa cervix cancer cells; assay: MTT cell proliferation assay, SiHa; type: cell-based; conditions: Homo sapiens, 24 h, read-out: IC50 on proliferation
Protocol: as §1, §2

Row | Structure (SMILES) | IC50 ([1]; Homo sapiens, MCF-10A, 24 h) [µM] | Effect on proliferation ([1]; MCF10A, 50 µM, 24 h of treatment) | IC50 ([2]; Rattus norvegicus, H9c2, 24 h) [µM] | IC50 ([3]; Homo sapiens, COLO 205, 24 h) [µM] | IC50 ([4]; Homo sapiens, 24 h) [µM] | IC50 ([5]; Homo sapiens, 24 h) [µM] | IC50 ([6]; Homo sapiens, MCF7, 24 h) [µM] | IC50 [7] [µM] | IC50 ([1]; MCF10A, 24 h treatment, MTT) [µM] | IC50 ([2]; H9c2, 24 h treatment, MTT) [µM] | IC50 ([3]; COLO-205, 24 h treatment, MTT) [µM] | IC50 ([4]; PC3, 24 h treatment, MTT) [µM] | IC50 ([5]; 24 h treatment, MTT) [µM] | IC50 ([6]; MCF7, 24 h treatment, MTT) [µM]
1 | C=C(C)[C@H]1Cc2c(ccc3c2O[C@@H]2COc4cc(OC)c(OC)cc4[C@@H]2C3=O)O1 [Rotenone, rotenone] | > 50 | not affected | 34 ± 10 | 37 ± 9 | 13 ± 1 | 17 ± 5 | 0.15 ± 0.09 | 18 ± 3 | – | – | – | – | – | –
2 | O=C(O)CC(=O)O [Malonate, malonate] | – | – | – | – | – | – | – | – | 43000 ± 9000 | 25000 ± 5000 | 32000 ± 3000 | 40000 ± 2000 | 27000 ± 5000 | 41000 ± 1000

Reference: paper PMC11979947, “Modeling Krebs cycle from liver, heart and hepatoma mitochondria, supported Complex I as target for specific inhibition of cancer cell proliferation” (Frontiers in Oncology, 2025)
